Experimental findings from EP4678638A1, “NEW E3 UBIQUITIN LIGASE LIGAND, PROTEIN DEGRADATION AGENT AND USE THEREOF” (priority 2023, dated 2024) are described below.

The target of assay [1] is T1, human Cereblon WT GST-tagged protein (Homo sapiens, UniProt Q96SW2).
T1 construct: purchased CISBIO 64BDCRBNPEH
The experiment in a line: CRBN binding, HTRF (CEREBLON BINDING kit). To be noted: Table II-2, CRBN binding screening, HTRF; for inhibition at 0.5 µM: read-out: Inhibition rate (%) at 0.5µM; for inhibition at 2 µM: read-out: Inhibition rate (%) at 2 µM. In a few lines: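 Competitive HTRF: GST-tagged human WT Cereblon mixed with compound, Thalidomide-Re tracer and GST Eu antibody, incubated 3 h at room temperature. Signals read at 620 and 665 nm.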

Another assay concerns MM.1S. The experiment in a line: CCK-8 proliferation, MM.1S. The class given is cell-based. To be noted: Homo sapiens, MM1.S; Table B6, compounds designed based on the ALK inhibitors; MM.1S cells; read-out: Inhibitory activity (IC50, nM) on tumor cell proliferation, MM.1S. Put shortly:
(§1)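 CCK-8 viability readout; IC50 from growth-inhibition curve fitting. Cells plated, dosed 24h later with a 10-point series, top 10µM, 5-fold steps. Culture at 37°C, 5% CO2.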

For a further assay, the system named is SR. The experiment in a line: CCK-8 proliferation, SR. The class given is cell-based, Human. To be noted: Homo sapiens; Table B6, compounds designed based on the ALK inhibitors; SR cells; read-out: Inhibitory activity (IC50, nM) on tumor cell proliferation, SR. In a few lines:
as §1

A further assay concerns the target T2, ALK (Homo sapiens, UniProt Q96SW2+Q9HC35+Q9UM73).
T2 construct: evaluate the effects of the compounds of the present disclosure on the expression of target proteins in cells; endogenous in cells; host or cells: H2228
The experiment in a line: Western blot degradation of ALK (H2228 Cell). To be noted: Table D5. It counts as cell-based. Put shortly: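 Degradation is assessed by immunoblotting lysates of treated cells. Target bands are quantified by grayscale and normalised to an internal control, so degradation rate equals 100% minus % remaining.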
On the technique in general: Immunoblotting shows a protein as a band on a membrane.

The next assay deals with MDA-MB-231. The experiment in a line: CCK-8 proliferation, MDA-MB-231. It counts as cell-based. To be noted: Homo sapiens; Table B6, compounds designed based on the ALK inhibitors; MDA-MB-231 cells; read-out: Inhibitory activity (IC50, nM) on tumor cell proliferation, MDA-MB-231. How it is done: The tumor cells used herein were cultured in a cell culture medium listed in table A1 at 37°C in an incubator with 5% CO2. Prior to experimentation, all cell lines used were correctly identified by STR profiling, and tested negative for mycoplasma contamination using a mycoplasma detection kit through routine screenings. Table A1. Tumor cells and cell culture medium used in the present disclosure
IC50 values of the compounds of the present disclosure (including the compounds in Table 1, and compounds of examples) were measured using the Meilun Cell Counting Kit-8 kit from Dalian Meilun Biotech Co., Ltd. Assay details are as follows: tumor cells were seeded in a 96-well plate at a density listed in Table A2. After 24h, 100 µL of the inoculated cells were treated with 0.5µL of the compounds of the present disclosure (including the compounds in Tables 1 and 2, and compounds of examples) at 10 different successively decreasing concentrations (starting at the highest concentration of 10µM; 5-fold serial dilutions). After the cells were treated with the compounds of the present disclosure for a period of time, the cell viability detection reagent was added to the culture medium for cell viability assessment according to the instructions provided with the CCK-8 kit. […] The growth inhibition of the compounds of the present disclosure on cells was plotted by Prism Graphpad software, and the IC50 values of the compounds of the present disclosure were calculated therefrom. […] Seeding protocol and treatment time for tumor cells

In another assay the test system is H2228. The experiment in a line: CCK-8 proliferation, NCI-H2228 (H2228). The class given is cell-based. To be noted: Homo sapiens, NCI-H2228; Table B6, compounds designed based on the ALK inhibitors; H2228 cells; read-out: Inhibitory activity (IC50, nM) on tumor cell proliferation, H2228. In a few lines:
as §1

A further assay deals with H1975. The experiment in a line: CCK-8 proliferation, NCI-H1975 (H1975). The settings on record: Homo sapiens, NCI-H1975; Table B6, compounds designed based on the ALK inhibitors; H1975 cells; read-out: Inhibitory activity (IC50, nM) on tumor cell proliferation, H1975. It counts as cell-based, Human. Put shortly:
as §1

A further assay relates to MCF7. The experiment in a line: CCK-8 proliferation, MCF7 (MCF-7). The class given is cell-based. The settings on record: Homo sapiens, MCF7; Table B6, compounds designed based on the ALK inhibitors; MCF-7 cells; read-out: Inhibitory activity (IC50, nM) on tumor cell proliferation, MCF-7. In a few lines: as §1

T1 sequence (Q96SW2 whole entry): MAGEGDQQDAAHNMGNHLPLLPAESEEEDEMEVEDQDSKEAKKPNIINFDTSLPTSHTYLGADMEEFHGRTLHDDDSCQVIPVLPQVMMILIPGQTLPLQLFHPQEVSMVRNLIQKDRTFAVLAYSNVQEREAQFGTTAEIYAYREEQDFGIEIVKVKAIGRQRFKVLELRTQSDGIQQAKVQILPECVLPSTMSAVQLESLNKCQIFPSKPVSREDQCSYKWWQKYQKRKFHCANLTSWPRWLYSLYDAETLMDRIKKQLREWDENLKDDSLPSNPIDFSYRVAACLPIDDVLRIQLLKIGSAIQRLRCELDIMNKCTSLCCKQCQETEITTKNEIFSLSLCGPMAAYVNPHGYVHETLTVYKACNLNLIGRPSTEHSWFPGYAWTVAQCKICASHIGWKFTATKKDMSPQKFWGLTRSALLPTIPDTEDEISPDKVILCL
T2 sequence (Q9HC35+Q9UM73 fused): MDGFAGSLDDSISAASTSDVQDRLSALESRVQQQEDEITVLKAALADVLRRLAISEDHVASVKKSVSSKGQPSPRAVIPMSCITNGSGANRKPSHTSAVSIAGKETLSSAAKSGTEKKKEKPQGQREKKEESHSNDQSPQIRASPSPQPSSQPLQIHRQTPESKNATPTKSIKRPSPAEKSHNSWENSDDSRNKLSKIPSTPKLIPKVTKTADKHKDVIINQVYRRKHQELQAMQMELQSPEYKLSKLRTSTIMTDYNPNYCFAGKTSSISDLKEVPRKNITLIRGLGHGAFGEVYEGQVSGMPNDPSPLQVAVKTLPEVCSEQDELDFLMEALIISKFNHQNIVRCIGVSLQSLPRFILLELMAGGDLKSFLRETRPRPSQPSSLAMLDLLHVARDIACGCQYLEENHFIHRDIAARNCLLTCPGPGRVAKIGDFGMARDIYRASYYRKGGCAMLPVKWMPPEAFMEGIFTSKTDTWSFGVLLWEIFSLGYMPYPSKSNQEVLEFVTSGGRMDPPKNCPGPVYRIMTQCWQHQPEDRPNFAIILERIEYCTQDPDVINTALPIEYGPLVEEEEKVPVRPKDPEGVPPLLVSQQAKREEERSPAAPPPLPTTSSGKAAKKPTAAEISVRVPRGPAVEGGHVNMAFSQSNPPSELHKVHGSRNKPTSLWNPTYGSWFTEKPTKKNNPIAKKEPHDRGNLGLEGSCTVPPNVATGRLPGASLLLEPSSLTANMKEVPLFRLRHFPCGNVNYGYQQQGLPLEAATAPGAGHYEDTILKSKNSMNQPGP
T2 sequence (Q96SW2 whole entry): as the sequence (Q96SW2 whole entry) above
T2 sequence (Q16531 whole entry partner): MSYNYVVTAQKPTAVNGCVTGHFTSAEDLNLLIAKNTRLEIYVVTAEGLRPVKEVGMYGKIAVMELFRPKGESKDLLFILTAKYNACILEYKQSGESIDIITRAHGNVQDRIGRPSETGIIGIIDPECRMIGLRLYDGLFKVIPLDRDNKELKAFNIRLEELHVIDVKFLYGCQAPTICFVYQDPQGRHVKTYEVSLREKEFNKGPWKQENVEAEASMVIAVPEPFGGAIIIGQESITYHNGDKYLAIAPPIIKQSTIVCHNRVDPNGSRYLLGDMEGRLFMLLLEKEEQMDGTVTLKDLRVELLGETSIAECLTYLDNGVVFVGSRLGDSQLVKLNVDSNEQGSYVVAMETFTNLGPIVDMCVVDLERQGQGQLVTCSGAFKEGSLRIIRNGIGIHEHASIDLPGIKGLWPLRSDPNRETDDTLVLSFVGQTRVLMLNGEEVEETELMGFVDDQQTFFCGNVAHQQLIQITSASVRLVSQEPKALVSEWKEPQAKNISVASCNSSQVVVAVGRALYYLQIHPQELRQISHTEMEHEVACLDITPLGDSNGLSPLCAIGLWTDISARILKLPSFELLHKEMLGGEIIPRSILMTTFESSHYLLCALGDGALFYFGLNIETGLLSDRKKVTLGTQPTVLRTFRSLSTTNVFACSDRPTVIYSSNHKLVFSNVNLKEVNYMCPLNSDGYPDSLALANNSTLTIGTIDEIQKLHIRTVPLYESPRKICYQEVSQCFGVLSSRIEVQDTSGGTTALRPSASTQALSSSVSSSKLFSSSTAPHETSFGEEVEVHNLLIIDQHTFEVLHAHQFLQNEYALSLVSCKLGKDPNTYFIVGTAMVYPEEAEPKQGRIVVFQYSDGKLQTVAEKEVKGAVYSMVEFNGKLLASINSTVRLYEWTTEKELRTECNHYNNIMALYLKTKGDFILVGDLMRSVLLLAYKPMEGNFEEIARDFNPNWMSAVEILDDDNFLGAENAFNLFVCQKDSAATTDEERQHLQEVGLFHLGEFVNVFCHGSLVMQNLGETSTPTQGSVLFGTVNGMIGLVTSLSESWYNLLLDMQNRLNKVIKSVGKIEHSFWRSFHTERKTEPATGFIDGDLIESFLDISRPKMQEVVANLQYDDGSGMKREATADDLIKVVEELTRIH

For orientation: inhibition means the share of the control response that was lost under treatment. Consider `COc1cc(N2CCC(N(C)Cc3ccc(C4CCC(=O)NC4=O)cc3)CC2)ccc1Nc1ncc(Cl)c(Nc2ccccc2P(C)(C)=O)n1` (stereo not drawn) [GT-03603, 3-(4-(((1-(4-((5-chloro-4-((2-(dimethylphosphoryl)phenyl)amino)pyrimidin-2-yl)amino)-3-methoxyphenyl)piperidin-4-yl)(methyl)amino)methyl)phenyl)piperidine-2,6-dione], for which, in assay [1], the inhibition at 0.5 µM lay in the range of 30 to 40%. For the same molecule, the inhibition at 2 µM in assay [1] fell in the range of 53 to 60%. In addition, the IC50 in the assay on MM.1S fell in the range of 500 to 1000 nM; in the assay on SR, 1 to 10 nM; in the assay with MDA-MB-231, 500 to 1000 nM; in the assay on H2228, 50 to 100 nM; with H1975, 500 to 1000 nM. Further, the “Degradation of substrate protein ALK (substrate protein remaining %)” value (shortened to “Degradation … (substrate protein remaining %)”) at ALK is “A (A is defined as 0% ≤ substrate protein remaining % ≤ 80%)”.
Turning to `COc1cc(N2CCC(N(C)Cc3ccc(C4CCC(=O)NC4=O)c(F)c3)CC2)ccc1Nc1ncc(Cl)c(Nc2ccccc2P(C)(C)=O)n1` (stereo not drawn) [GT-03604, 3-(4-(((1-(4-((5-chloro-4-((2-(dimethylphosphoryl)phenyl)amino)pyrimidin-2-yl)amino)-3-methoxyphenyl)piperidin-4-yl)(methyl)amino)methyl)-2-fluorophenyl)piperidine-2,6-dione], the inhibition at 0.5 µM in assay [1] was in the range of 20 to 30%. Besides, the inhibition at 2 µM in assay [1] lay in the range of 53 to 60%. Also, the IC50 fell in the range of 500 to 1000 nM in the assay on MM.1S; 1 to 10 nM in the assay on SR; 100 to 500 nM in the assay with MDA-MB-231; 10 to 50 nM in the assay on H2228; 100 to 500 nM in the assay on H1975. Also, the “Degradation … (substrate protein remaining %)” value at ALK is “A (A is defined as 0% ≤ substrate protein remaining % ≤ 80%)”.
On to `CCc1cc2c(cc1N1CCC(N3CCN(Cc4cccc(N5CCC(=O)NC5=O)c4)CC3)CC1)C(C)(C)c1[nH]c3cc(C#N)ccc3c1C2=O` [GT-07310, 8-(4-(4-(3-(2,4-dioxotetrahydropyrimidin-1(2H)-yl)benzyl)piperazin-1-yl)piperidin-1-yl)-9-ethyl-6,6-dimethyl-11-oxo-6,11-dihydro-5H-benzo[b]carbazole-3-carbonitrile], for which the IC50 in the assay with MCF7 lay within 500 to 1000 nM; in the assay with SR it was 1 to 10 nM; with MDA-MB-231, 500 to 1000 nM; in the assay on H2228, 100 to 500 nM. Besides, on ALK, the “Degradation … (substrate protein remaining %)” value is “A (A is defined as 0% ≤ substrate protein remaining % ≤ 80%)”.
For `Cc1cc(Nc2ncc(Cl)c(Nc3ccccc3S(=O)(=O)C(C)C)n2)c(OC(C)C)cc1C1CCN(Cc2ccc(C3CCC(=O)NC3=O)cc2)CC1` (stereo not drawn) [GT-07364, 3-(4-((4-(4-((5-chloro-4-((2-(isopropylsulfonyl)phenyl)amino)pyrimidin-2-yl)amino)-5-isopropoxy-2-methylphenyl)piperidin-1-yl)methyl)phenyl)piperidine-2,6-dione], the IC50 was 100 to 500 nM in the assay with MCF7; 500 to 1000 nM in the assay with MM.1S; 10 to 50 nM in the assay with SR; 500 to 1000 nM with MDA-MB-231; 100 to 500 nM in the assay on H2228. Besides, the “Degradation … (substrate protein remaining %)” value at ALK is on record as “A (A is defined as 0% ≤ substrate protein remaining % ≤ 80%)”.
As to `COc1cc(N2CCC(N3CCN(Cc4cccc(NC5CCC(=O)NC5=O)c4)CC3)CC2)ccc1Nc1ncc(Cl)c(Nc2ccccc2P(C)(C)=O)n1` (stereo not drawn) [GT-07605, 3-((3-((4-(1-(4-((5-chloro-4-((2-(dimethylphosphoryl)phenyl)amino)pyrimidin-2-yl)amino)-3-methoxyphenyl)piperidin-4-yl)piperazin-1-yl)methyl)phenyl)amino)pip eridine-2,6-dione], the IC50 lay in the range of 100 to 500 nM in the assay on MCF7; 1 to 10 nM with SR; 100 to 500 nM in the assay on MDA-MB-231; 50 to 100 nM in the assay on H2228; 100 to 500 nM in the assay on H1975. For the same molecule, the “Degradation … (substrate protein remaining %)” value on ALK is “A (A is defined as 0% ≤ substrate protein remaining % ≤ 80%)”.
For the molecule `COc1cc(N2CCC(N3CCN(Cc4cc(N5CCC(=O)NC5=O)ncc4F)CC3)CC2)ccc1Nc1ncc(Cl)c(Nc2ccccc2P(C)(C)=O)n1` [GT-07608, 1-(4-((4-(1-(4-((5-chloro-4-((2-(dimethylphosphoryl)phenyl)amino)pyrimidin-2-yl)amino)-3-methoxyphenyl)piperidin-4-yl)piperazin-1-yl)methyl)-5-fluoropyridin-2-yl)dihydropyrimidine-2,4(1H,3H)-dione], the IC50 in the assay with MCF7 was in the range of 100 to 500 nM; in the assay on MM.1S it was 500 to 1000 nM; in the assay with SR, 1 to 10 nM; in the assay with MDA-MB-231 it was 100 to 500 nM; with H2228 it was 10 to 50 nM; in the assay on H1975, 100 to 500 nM. At ALK, the “Degradation … (substrate protein remaining %)” value was “A (A is defined as 0% ≤ substrate protein remaining % ≤ 80%)”.
As for `COc1cc(N2CCC(N3CCN(Cc4ccc(C5CCC(=O)NC5=O)cn4)CC3)CC2)ccc1Nc1ncc(Cl)c(Nc2ccccc2P(C)(C)=O)n1` (stereo not drawn) [GT-07613, 3-(6-((4-(1-(4-((5-chloro-4-((2-(dimethylphosphoryl)phenyl)amino)pyrimidin-2-yl)amino)-3-methoxyphenyl)piperidin-4-yl)piperazin-1-yl)methyl)pyridin-3-yl)piperidine-2,6-dione], the IC50 was 500 to 1000 nM in the assay on MCF7; 1 to 10 nM with SR; 500 to 1000 nM in the assay with MDA-MB-231; 50 to 100 nM in the assay on H2228; 500 to 1000 nM in the assay with H1975. Further, on ALK, the “Degradation … (substrate protein remaining %)” value was “A (A is defined as 0% ≤ substrate protein remaining % ≤ 80%)”.
Turning to `COc1cc(N2CCC(N(C)Cc3cccc(NC4CCC(=O)NC4=O)c3)CC2)ccc1Nc1ncc(Cl)c(Nc2ccccc2P(C)(C)=O)n1` (stereo not drawn) [GT-07692, 3-((3-(((1-(4-((5-chloro-4-((2-(dimethylphosphoryl)phenyl)amino)pyrimidin-2-yl)amino)-3-methoxyphenyl)piperidin-4-yl)(methyl)amino)methyl)phenyl)amino)piperidine-2,6-dione], the IC50 lay within 100 to 500 nM in the assay on MCF7; 10 to 50 nM in the assay with SR; 500 to 1000 nM in the assay with MDA-MB-231; 100 to 500 nM in the assay with H2228; 500 to 1000 nM with H1975. Further, the “Degradation … (substrate protein remaining %)” value at ALK is recorded as “A (A is defined as 0% ≤ substrate protein remaining % ≤ 80%)”.
Consider `COc1cc(N2CCC(N(C)Cc3cncc(C4CCC(=O)NC4=O)c3)CC2)ccc1Nc1ncc(Cl)c(Nc2ccccc2P(C)(C)=O)n1` (stereo not drawn) [GT-07699, 3-(5-(((1-(4-((5-chloro-4-((2-(dimethylphosphoryl)phenyl)amino)pyrimidin-2-yl)amino)-3-methoxyphenyl)piperidin-4-yl)(methyl)amino)methyl)pyridin-3-yl)piperidine-2,6-dione], for which the IC50 in the assay with MCF7 lay in the range of 500 to 1000 nM; in the assay with SR, 10 to 50 nM; with MDA-MB-231, 500 to 1000 nM; in the assay on H2228 it was 100 to 500 nM; in the assay on H1975 it was 500 to 1000 nM. On ALK, the “Degradation … (substrate protein remaining %)” value is on record as “A (A is defined as 0% ≤ substrate protein remaining % ≤ 80%)”.
On to `COc1cc(N2CCN(Cc3cncc(C4CCC(=O)NC4=O)c3)CC2)ccc1Nc1ncc(Cl)c(Nc2ccccc2P(C)(C)=O)n1` (stereo not drawn) [GT-07714, 3-(5-((4-(4-((5-chloro-4-((2-(dimethylphosphoryl)phenyl)amino)pyrimidin-2-yl)amino)-3-methoxyphenyl)piperazin-1-yl)methyl)pyridin-3-yl)piperidine-2,6-dione], for which the IC50 in the assay with MCF7 lay in the range of 50 to 100 nM; in the assay with SR it was 10 to 50 nM; in the assay on MDA-MB-231, 100 to 500 nM; with H2228 it was 100 to 500 nM. Moreover, the “Degradation … (substrate protein remaining %)” value at ALK is “A (A is defined as 0% ≤ substrate protein remaining % ≤ 80%)”.
